Values after ≈ are worked out from the molar mass of the structure shown.
What was measured:
[1] = test system: H9 (acute lymphoblastic leukemia, ALL); experiment: MTT growth inhibition of leukemia cells, 72 h; type: cell-based, human; settings: Homo sapiens, H9, 72 h; for IC50: read-out: IC50; for IC90: read-out: IC90
Outline: (§1)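 Seed 6000 cells per well in serum-supplemented RPMI-1640 (10% FBS); next day add derivatives at several concentrations, diluted from a 10 mg/mL DMSO stock; incubate 72 h at 37 °C, 5% CO2; quantify surviving cells with MTT.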

[2] = test system: Jurkat (acute lymphoblastic leukemia, ALL); experiment: MTT growth inhibition of leukemia cells, 72 h; type: cell-based, human; settings: Homo sapiens, 72 h; for IC50: read-out: IC50; for IC90: read-out: IC90
Outline: as §1

[3] = test system: K562/adr (drug-resistant, chronic myeloid leukemia, CML); experiment: MTT growth inhibition of leukemia cells, 72 h; type: cell-based, human; settings: Homo sapiens, K562/Adr; for IC50: read-out: IC50; for IC90: read-out: IC90
Outline: as §1

[4] = test system: Kasumi-1 (acute myeloid leukemia M2 type, AML-M2); experiment: MTT growth inhibition of leukemia cells, 72 h; type: cell-based, human; settings: Homo sapiens, Kasumi-1, 72 h; for IC50: read-out: IC50; for IC90: read-out: IC90
Outline: as §1

[5] = test system: NB4 (acute promyelocytic leukemia, AML); experiment: MTT growth inhibition of leukemia cells, 72 h; type: cell-based, human; settings: Homo sapiens, NB4, 72 h; for IC50: read-out: IC50; for IC90: read-out: IC90
Outline: as §1

[6] = test system: RPMI8226 (multiple myeloma); experiment: MTT growth inhibition of multiple myeloma cells, 72 h; type: cell-based, human; settings: Homo sapiens, RPMI 8226, 72 h; for IC50: read-out: IC50; for IC90: read-out: IC90
Outline: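 Viability read by MTT after 72 h at 37° C, 5% CO2: compounds from a 10 mg/mL DMSO stock were diluted in medium and added at several concentrations to 6000 RPMI8226 cells per well in 1640 medium plus 10% FBS.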

A549 (human lung cancer) = experiment: MTT growth inhibition of human solid tumor cells, 72 h; type: cell-based; settings: Homo sapiens, A549, 72 h; for IC50: read-out: IC50; for IC90: read-out: IC90
Outline: (§2)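 4000 cells/well; DMEM high glucose + 10% FBS; 37° C, 5% CO2, 24 h attachment. Compounds from 10 mg/mL DMSO stock, diluted in medium to graded doses. Viable cells read after exposure.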

[7] = test system: Becap37 (human breast cancer cell); experiment: as above; type: cell-based; settings: Homo sapiens, Becap-37, 72 h; for IC50: read-out: IC50; for IC90: read-out: IC90
Outline: as §2

[8] = test system: CNE (nasopharyngeal carcinoma cell); experiment: as above; type: cell-based; settings: Homo sapiens; for IC50: read-out: IC50; for IC90: read-out: IC90
Outline: as §2

[9] = test system: CaES-17 (esophageal cancer cell); experiment: as above; type: cell-based; settings: Homo sapiens, CaEs17, CaEs-17, 72 h; for IC50: read-out: IC50; for IC90: read-out: IC90
Outline: as §2

[10] = test system: Hela (human cervical cancer cell); experiment: as above; type: cell-based; settings: Homo sapiens, HeLa, 72 h; for IC50: read-out: IC50; for IC90: read-out: IC90
Outline: as §2

[11] = test system: Hep G2 (human liver cancer cell); experiment: as above; type: cell-based; settings: Homo sapiens, HepG2, Hep G2, 72 h; for IC50: read-out: IC50; for IC90: read-out: IC90
Outline: as §2

[12] = test system: Hep-2 (laryngeal carcinoma); experiment: as above; type: cell-based; settings: Homo sapiens, HEp-2, 72 h; for IC50: read-out: IC50; for IC90: read-out: IC90
Outline: as §2

MG63 (osteosarcoma) = experiment: as above; type: cell-based; settings: Homo sapiens, MG-63, 72 h; for IC50: read-out: IC50; for IC90: read-out: IC90
Outline: as §2

[13] = test system: MGC 803 (human gastric cancer cell); experiment: as above; type: cell-based; settings: Homo sapiens, MGC-803, 72 h; for IC50: read-out: IC50; for IC90: read-out: IC90
Outline: as §2

[14] = test system: PANC-1 (pancreatic cancer); experiment: as above; type: cell-based; settings: Homo sapiens, PANC-1, 72 h; for IC50: read-out: IC50; for IC90: read-out: IC90
Outline: as §2

PC-3 (prostate cancer) = experiment: as above; type: cell-based; settings: Homo sapiens, PC-3, 72 h; for IC50: read-out: IC50; for IC90: read-out: IC90
Outline: as §2

[15] = test system: RKO (human colon adenocarcinoma cell); experiment: as above; type: cell-based; settings: Homo sapiens; for IC50: read-out: IC50; for IC90: read-out: IC90
Outline: as §2

[16] = test system: SK-OV-3 (ovarian cancer cell); experiment: as above; type: cell-based; settings: Homo sapiens, SK-OV-3, 72 h; for IC50: read-out: IC50; for IC90: read-out: IC90
Outline: as §2

[17] = test system: U87 MG (malignant glioma cell); experiment: as above; type: cell-based; settings: Homo sapiens, U-87 MG, U87-MG, 72 h; for IC50: read-out: IC50; for IC90: read-out: IC90
Outline: as §2

Structure (SMILES) | IC50 [1] [µg/mL] | IC90 [1] [µg/mL] | IC50 [2] [µg/mL] | IC90 [2] [µg/mL] | IC50 [3] [µg/mL] | IC90 [3] [µg/mL] | IC50 [4] [µg/mL] | IC90 [4] [µg/mL] | IC50 [5] [µg/mL] | IC90 [5] [µg/mL] | IC50 [6] [µg/mL] | IC90 [6] [µg/mL] | IC50 (A549 (human lung cancer)) [µg/mL] | IC90 (A549 (human lung cancer)) [µg/mL] | IC50 [7] [µg/mL] | IC90 [7] [µg/mL] | IC50 [8] [µg/mL] | IC90 [8] [µg/mL] | IC50 [9] [µg/mL] | IC90 [9] [µg/mL] | also measured
Cc1c(CNCC2CC2)oc2c1C(=O)C(=O)c1c-2ccc2c(C)cccc12 [BS-TA-B07] | 2.9 (≈ 8.07 µM) | 7.5 (≈ 20.9 µM) | 3.11 (≈ 8.65 µM) | 9.52 (≈ 26.5 µM) | 3.22 (≈ 8.96 µM) | 6.38 (≈ 17.8 µM) | 1.07 (≈ 2.98 µM) | 3.86 (≈ 10.7 µM) | 1.35 (≈ 3.76 µM) | 3.74 (≈ 10.4 µM) | 3.46 (≈ 9.63 µM) | 10.2 (≈ 28.3 µM) | 5.98 (≈ 16.6 µM) | 21.9 (≈ 61.1 µM) | 5.23 (≈ 14.6 µM) | 14.3 (≈ 39.9 µM) | 9 (≈ 25 µM) | > 16 | 9.16 (≈ 25.5 µM) | 19.7 (≈ 54.8 µM) | IC50 [10]: 6.86 µg/mL (≈ 19.1 µM); IC90 [10]: 18.5 µg/mL (≈ 51.4 µM); IC50 [11]: 8.46 µg/mL (≈ 23.5 µM); IC90 [11]: > 16 µg/mL; IC50 [12]: 9.45 µg/mL (≈ 26.3 µM); IC90 [12]: > 16 µg/mL; IC50 (MG63 (osteosarcoma)): 8.14 µg/mL (≈ 22.6 µM); IC90 (MG63 (osteosarcoma)): > 16 µg/mL; IC50 [13]: 6.9 µg/mL (≈ 19.2 µM); IC90 [13]: 17.1 µg/mL (≈ 47.7 µM); IC50 [14]: 1.33 µg/mL (≈ 3.7 µM); IC90 [14]: 8.21 µg/mL (≈ 22.8 µM); IC50 (PC-3 (prostate cancer)): 7.05 µg/mL (≈ 19.6 µM); IC90 (PC-3 (prostate cancer)): 16 µg/mL (≈ 44.5 µM); IC50 [15]: 0.93 µg/mL (≈ 2.59 µM); IC90 [15]: 17 µg/mL (≈ 47.4 µM); IC50 [16]: > 16 µg/mL; IC90 [16]: > 16 µg/mL; IC50 [17]: 10.1 µg/mL (≈ 28 µM); IC90 [17]: 21.2 µg/mL (≈ 59 µM)
CCCCNCc1oc2c(c1C)C(=O)C(=O)c1c-2ccc2c(C)cccc12 [BS-TA-B10] | 6 (≈ 16.6 µM) | > 16 | > 16 | > 16 | 0.76 (≈ 2.1 µM) | 1.8 (≈ 4.98 µM) | 0.4 (≈ 1.11 µM) | 0.92 (≈ 2.55 µM) | 5.79 (≈ 16 µM) | 15.4 (≈ 42.7 µM) | 15.8 (≈ 43.8 µM) | > 16 | 1.28 (≈ 3.54 µM) | 6 (≈ 16.6 µM) | > 16 | > 16 | > 16 | > 16 | > 16 | > 16 | IC50 [10]: 15.6 µg/mL (≈ 43 µM); IC90 [10]: > 16 µg/mL; IC50 [11]: > 16 µg/mL; IC90 [11]: > 16 µg/mL; IC50 [12]: 15.8 µg/mL (≈ 43.6 µM); IC90 [12]: > 16 µg/mL; IC50 (MG63 (osteosarcoma)): > 16 µg/mL; IC90 (MG63 (osteosarcoma)): > 16 µg/mL; IC50 [13]: > 16 µg/mL; IC90 [13]: > 16 µg/mL; IC50 [14]: 0.88 µg/mL (≈ 2.43 µM); IC90 [14]: 5.82 µg/mL (≈ 16.1 µM); IC50 (PC-3 (prostate cancer)): > 16 µg/mL; IC90 (PC-3 (prostate cancer)): > 16 µg/mL; IC50 [15]: 5.47 µg/mL (≈ 15.1 µM); IC90 [15]: > 16 µg/mL; IC50 [16]: > 16 µg/mL; IC90 [16]: > 16 µg/mL; IC50 [17]: > 16 µg/mL; IC90 [17]: > 16 µg/mL
Cc1c(CN2CCCN(C)CC2)oc2c1C(=O)C(=O)c1c-2ccc2c(C)cccc12 [BS-TA-B12] | 4.11 (≈ 10.2 µM) | 10.5 (≈ 26.1 µM) | 1.78 (≈ 4.42 µM) | 5.91 (≈ 14.7 µM) | 1.5 (≈ 3.73 µM) | 2.79 (≈ 6.93 µM) | 0.89 (≈ 2.21 µM) | 1.9 (≈ 4.72 µM) | 0.94 (≈ 2.34 µM) | 1.9 (≈ 4.72 µM) | 3.72 (≈ 9.24 µM) | 7.13 (≈ 17.7 µM) | 1.65 (≈ 4.1 µM) | 4.33 (≈ 10.8 µM) | 3.34 (≈ 8.3 µM) | 7.38 (≈ 18.3 µM) | 0.45 (≈ 1.12 µM) | 0.62 (≈ 1.54 µM) | 0.73 (≈ 1.81 µM) | 1.97 (≈ 4.89 µM) | IC50 [10]: 1.46 µg/mL (≈ 3.63 µM); IC90 [10]: 3.58 µg/mL (≈ 8.89 µM); IC50 [11]: 3.8 µg/mL (≈ 9.44 µM); IC90 [11]: 7.96 µg/mL (≈ 19.8 µM); IC50 [12]: 4.01 µg/mL (≈ 9.96 µM); IC90 [12]: 9.08 µg/mL (≈ 22.6 µM); IC50 (MG63 (osteosarcoma)): 3.37 µg/mL (≈ 8.37 µM); IC90 (MG63 (osteosarcoma)): 5.49 µg/mL (≈ 13.6 µM); IC50 [13]: 2.48 µg/mL (≈ 6.16 µM); IC90 [13]: 5.05 µg/mL (≈ 12.5 µM); IC50 [14]: 1.06 µg/mL (≈ 2.63 µM); IC90 [14]: 4.16 µg/mL (≈ 10.3 µM); IC50 (PC-3 (prostate cancer)): 9.3 µg/mL (≈ 23.1 µM); IC90 (PC-3 (prostate cancer)): 11.2 µg/mL (≈ 27.8 µM); IC50 [15]: 0.7 µg/mL (≈ 1.74 µM); IC90 [15]: 5.26 µg/mL (≈ 13.1 µM); IC50 [16]: 2.53 µg/mL (≈ 6.29 µM); IC90 [16]: 3.84 µg/mL (≈ 9.54 µM); IC50 [17]: 1.16 µg/mL (≈ 2.88 µM); IC90 [17]: 3.4 µg/mL (≈ 8.45 µM)
Cc1c(CNCCC(C)(C)C)oc2c1C(=O)C(=O)c1c-2ccc2c(C)cccc12 [BS-TA-B14] | 2 (≈ 5.13 µM) | 11.9 (≈ 30.6 µM) | 6.66 (≈ 17.1 µM) | > 16 | 0.77 (≈ 1.98 µM) | 1.82 (≈ 4.67 µM) | 0.6 (≈ 1.54 µM) | 1.99 (≈ 5.11 µM) | 3.59 (≈ 9.22 µM) | 13.7 (≈ 35.2 µM) | 8 (≈ 20.5 µM) | > 16 | 1.75 (≈ 4.49 µM) | 9 (≈ 23.1 µM) | 4.6 (≈ 11.8 µM) | > 16 | > 16 | > 16 | > 16 | > 16 | IC50 [10]: 5.28 µg/mL (≈ 13.6 µM); IC90 [10]: 84.2 µg/mL (≈ 216 µM); IC50 [11]: 16 µg/mL (≈ 41.1 µM); IC90 [11]: > 16 µg/mL; IC50 [12]: 14.3 µg/mL (≈ 36.7 µM); IC90 [12]: 35.2 µg/mL (≈ 90.5 µM); IC50 (MG63 (osteosarcoma)): 4.86 µg/mL (≈ 12.5 µM); IC90 (MG63 (osteosarcoma)): > 16 µg/mL; IC50 [13]: 14.4 µg/mL (≈ 37 µM); IC90 [13]: > 16 µg/mL; IC50 [14]: 1.88 µg/mL (≈ 4.83 µM); IC90 [14]: 6.19 µg/mL (≈ 15.9 µM); IC50 (PC-3 (prostate cancer)): 14.7 µg/mL (≈ 37.6 µM); IC90 (PC-3 (prostate cancer)): > 16 µg/mL; IC50 [15]: 3.36 µg/mL (≈ 8.63 µM); IC90 [15]: > 16 µg/mL; IC50 [16]: > 16 µg/mL; IC90 [16]: > 16 µg/mL; IC50 [17]: 3.85 µg/mL (≈ 9.88 µM); IC90 [17]: > 16 µg/mL
